Data published in US20260022142A1, “MACROCYCLIC IMMUNOMODULATORS” (Bristol-Myers Squibb Company, priority 2022, published 2026).
Bridge positions count the residues as written; N and C are the ends. Square brackets hold non-standard residues; d marks the D form. Peptide text beside a SMILES is read from it. * marks the point of attachment. Ala(morpholin-4-yl) = N[C@@H](CN1CCOCC1)C(=O)O; Phe(4-COOH) = N[C@@H](Cc1ccc(C(=O)O)cc1)C(=O)O; Bip = N[C@@H](Cc1ccc(-c2ccccc2)cc1)C(=O)O; Phe(4-CN) = N#Cc1ccc(C[C@H](N)C(=O)O)cc1; Phe(3-Me) = Cc1cccc(C[C@H](N)C(=O)O)c1; Abu(3S-NH2) = C[C@H](N)[C@H](N)C(=O)O; Val(3-OH) = CC(C)(O)[C@H](N)C(=O)O; hArg = N=C(N)NCCCC[C@H](N)C(=O)O; Cha = N[C@@H](CC1CCCCC1)C(=O)O; Cba = N[C@@H](CC1CCC1)C(=O)O; dDab = NCC[C@@H](N)C(=O)O; Carboxymethyl = O=C(O)C*; Orn = NCCC[C@H](N)C(=O)O; Aun = NCCCCCCCCCCC(=O)O; Dab = NCC[C@H](N)C(=O)O; AEEA = NCCOCCOCC(=O)O

Molecular target: T1, PD-1/PD-L1 interaction (PE-labeled human PD-L1-Ig binding to Jurkat cell line over-expressing human PD-1) (Homo sapiens, UniProt Q15116)
T1 construct: expressed in transfected cells; host or cells: Jurkat
Assay: Jurkat-PD-1 Cell Binding High-Content Screening Assay (CBA)
Format: cell-based
Details: Jurkat cell line over-expressing human PD-1; PE-labeled PD-L1-Ig 20 nM final; read-out: Jurkat hPD1-PDL1 IC50
Outline: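 Binding of fluorescent PD-L1-Ig (phycoerythrin on Ig tag, 20 nM final, 1 h) measured by high-content imaging of fixed, Hoechst-counterstained Jurkat-hPD-1 cells. Compound added 2 h at 37° C beforehand, in DMEM with 10% fetal calf serum.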

T1 sequence (Q15116 25-288): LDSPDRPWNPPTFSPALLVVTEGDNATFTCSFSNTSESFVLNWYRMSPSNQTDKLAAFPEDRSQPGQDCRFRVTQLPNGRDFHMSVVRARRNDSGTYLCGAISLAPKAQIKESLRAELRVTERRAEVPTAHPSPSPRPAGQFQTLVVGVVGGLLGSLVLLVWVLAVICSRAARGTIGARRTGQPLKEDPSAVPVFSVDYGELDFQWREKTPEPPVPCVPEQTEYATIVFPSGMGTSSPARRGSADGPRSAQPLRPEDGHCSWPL

| Structure (SMILES) | IC50 |
| --- | --- |
| Cc1cccc(C[C@@H]2NC(=O)[C@H](CC(=O)O)NC(=O)[C@H](Cc3ccc(OCC(=O)O)cc3)NC(=O)[C@H](CC3CCC3)NC(=O)CSC[C@@H](C(=O)N[C@@H](CCN)C(=O)NCCCCCCCCCCC(=O)O)NC(=O)[C@H](CO)NC(=O)[C@H](C(C)(C)O)NC(=O)[C@H](CC3CCCCC3)NC(=O)[C@H](CCN)NC(=O)[C@@H](CC(C)C)NC(=O)[C@H](CCCN)NC(=O)[C@H](Cc3ccc(OCC(=O)O)cc3)NC(=O)[C@H](Cc3ccc(-c4ccccc4)cc3)NC(=O)[C@H](Cc3ccc(OCC(=O)O)cc3)NC2=O)c1 [Compound 2233] ({CH2CO}-[Cba]Y(Carboxymethyl)D[Phe(3-Me)]Y(Carboxymethyl)[Bip]Y(Carboxymethyl)[Orn][dL][Dab][Cha][Val(3-OH)]SC[Dab][Aun]-OH; thioether N-14) | 5 nM |
| Cc1cccc(C[C@@H]2NC(=O)[C@H](CC(=O)O)NC(=O)[C@H](Cc3ccc(OCC(=O)O)cc3)NC(=O)[C@H](CCCCNC(=N)N)NC(=O)CSC[C@@H](C(=O)N[C@@H](CCN)C(=O)NCCCCCCCCCCC(=O)O)NC(=O)[C@H](CO)NC(=O)[C@H](C(C)(C)O)NC(=O)[C@H](CC3CCCCC3)NC(=O)[C@H](CCN)NC(=O)[C@@H](CC(C)C)NC(=O)[C@H](CCCN)NC(=O)[C@H](Cc3ccc(OCC(=O)O)cc3)NC(=O)[C@H](Cc3ccc(-c4ccccc4)cc3)NC(=O)[C@H](Cc3ccc(OCC(=O)O)cc3)NC2=O)c1 [Compound 2234] ({CH2CO}-[hArg]Y(Carboxymethyl)D[Phe(3-Me)]Y(Carboxymethyl)[Bip]Y(Carboxymethyl)[Orn][dL][Dab][Cha][Val(3-OH)]SC[Dab][Aun]-OH; thioether N-14) | 2.6 nM |
| Cc1cccc(C[C@@H]2NC(=O)[C@H](CC(=O)O)NC(=O)[C@H](Cc3ccc(OCC(=O)O)cc3)NC(=O)[C@H](CN3CCOCC3)NC(=O)CSC[C@@H](C(=O)N[C@@H](CCN)C(=O)NCCCCCCCCCCC(=O)O)NC(=O)[C@H](CO)NC(=O)[C@H](C(C)(C)O)NC(=O)[C@H](CC3CCCCC3)NC(=O)[C@H](CCN)NC(=O)[C@@H](CC(C)C)NC(=O)[C@H](CCCN)NC(=O)[C@H](Cc3ccc(OCC(=O)O)cc3)NC(=O)[C@H](Cc3ccc(-c4ccccc4)cc3)NC(=O)[C@H](Cc3ccc(OCC(=O)O)cc3)NC2=O)c1 [Compound 2235] ({CH2CO}-[Ala(morpholin-4-yl)]Y(Carboxymethyl)D[Phe(3-Me)]Y(Carboxymethyl)[Bip]Y(Carboxymethyl)[Orn][dL][Dab][Cha][Val(3-OH)]SC[Dab][Aun]-OH; thioether N-14) | 0.9 nM |
| Cc1cccc(C[C@@H]2NC(=O)[C@H](CC(=O)O)NC(=O)[C@H](Cc3ccc(OCC(=O)O)cc3)NC(=O)[C@@H](CCN)NC(=O)CSC[C@@H](C(=O)N[C@@H](CCN)C(=O)NCCCCCCCCCCC(=O)O)NC(=O)[C@H](CO)NC(=O)[C@H](C(C)(C)O)NC(=O)[C@H](CC3CCCCC3)NC(=O)[C@H](CCN)NC(=O)[C@@H](CC(C)C)NC(=O)[C@H](CCCN)NC(=O)[C@H](Cc3ccc(OCC(=O)O)cc3)NC(=O)[C@H](Cc3ccc(-c4ccccc4)cc3)NC(=O)[C@H](Cc3ccc(OCC(=O)O)cc3)NC2=O)c1 [Compound 2236] ({CH2CO}-[dDab]Y(Carboxymethyl)D[Phe(3-Me)]Y(Carboxymethyl)[Bip]Y(Carboxymethyl)[Orn][dL][Dab][Cha][Val(3-OH)]SC[Dab][Aun]-OH; thioether N-14) | 185 nM |
| Cc1cccc(C[C@@H]2NC(=O)[C@H](CC(=O)O)NC(=O)[C@H](Cc3ccc(OCC(=O)O)cc3)NC(=O)[C@H]([C@H](C)N)NC(=O)CSC[C@@H](C(=O)N[C@@H](CCN)C(=O)NCCCCCCCCCCC(=O)O)NC(=O)[C@H](CO)NC(=O)[C@H](C(C)(C)O)NC(=O)[C@H](CC3CCCCC3)NC(=O)[C@H](CCN)NC(=O)[C@@H](CC(C)C)NC(=O)[C@H](CCCN)NC(=O)[C@H](Cc3ccc(OCC(=O)O)cc3)NC(=O)[C@H](Cc3ccc(-c4ccccc4)cc3)NC(=O)[C@H](Cc3ccc(OCC(=O)O)cc3)NC2=O)c1 [Compound 2237] ({CH2CO}-[Abu(3S-NH2)]Y(Carboxymethyl)D[Phe(3-Me)]Y(Carboxymethyl)[Bip]Y(Carboxymethyl)[Orn][dL][Dab][Cha][Val(3-OH)]SC[Dab][Aun]-OH; thioether N-14) | 2.6 nM |
| Cc1cccc(C[C@@H]2NC(=O)[C@H](CC(=O)O)NC(=O)[C@H](Cc3ccc(OCC(=O)O)cc3)NC(=O)[C@H](CCCCN)NC(=O)CSC[C@@H](C(=O)N[C@@H](CCN)C(=O)NCCCCCCCCCCC(=O)O)NC(=O)[C@H](CO)NC(=O)[C@H](C(C)(C)O)NC(=O)[C@H](CC3CCCCC3)NC(=O)[C@H](CCN)NC(=O)[C@@H](CC(C)C)NC(=O)[C@H](CCCN)NC(=O)[C@H](Cc3ccc(OCC(=O)O)cc3)NC(=O)[C@H](Cc3ccc(-c4ccccc4)cc3)NC(=O)[C@H](Cc3ccc(OCC(=O)O)cc3)NC2=O)c1 [Compound 2238] ({CH2CO}-KY(Carboxymethyl)D[Phe(3-Me)]Y(Carboxymethyl)[Bip]Y(Carboxymethyl)[Orn][dL][Dab][Cha][Val(3-OH)]SC[Dab][Aun]-OH; thioether N-14) | 11.2 nM |
| COC[C@@H]1NC(=O)CSC[C@@H](C(=O)N[C@@H](CCN)C(=O)NCCOCCOCC(=O)NCCCCCCCCCCC(=O)O)NC(=O)[C@H](CO)NC(=O)[C@H](C(C)(C)O)NC(=O)[C@H](CC2CCCCC2)NC(=O)[C@H](CCN)NC(=O)[C@@H](CC(C)C)NC(=O)[C@H](CCCN)NC(=O)[C@H](Cc2ccc(OCC(=O)O)cc2)NC(=O)[C@H](Cc2ccc(-c3ccccc3)cc2)NC(=O)[C@H](Cc2ccc(OCC(=O)O)cc2)NC(=O)[C@H](Cc2cccc(C)c2)NC(=O)[C@H](CC(=O)O)NC(=O)[C@H](Cc2ccc(OCC(=O)O)cc2)NC1=O [Compound 2239] ({CH2CO}-S(Me)Y(Carboxymethyl)D[Phe(3-Me)]Y(Carboxymethyl)[Bip]Y(Carboxymethyl)[Orn][dL][Dab][Cha][Val(3-OH)]SC[Dab][AEEA][Aun]-OH; thioether N-14) | 1.6 nM |
| Cc1cccc(C[C@@H]2NC(=O)[C@H](CC(=O)O)NC(=O)[C@H](Cc3ccc(OCC(=O)O)cc3)NC(=O)[C@H](Cc3ccc(C#N)cc3)NC(=O)CSC[C@@H](C(=O)N[C@@H](CCN)C(=O)NCCOCCOCC(=O)NCCCCCCCCCCC(=O)O)NC(=O)[C@H](CO)NC(=O)[C@H](C(C)(C)O)NC(=O)[C@H](CC3CCCCC3)NC(=O)[C@H](CCN)NC(=O)[C@@H](CC(C)C)NC(=O)[C@H](CCCN)NC(=O)[C@H](Cc3ccc(OCC(=O)O)cc3)NC(=O)[C@H](Cc3ccc(-c4ccccc4)cc3)NC(=O)[C@H](Cc3ccc(OCC(=O)O)cc3)NC2=O)c1 [Compound 2240] ({CH2CO}-[Phe(4-CN)]Y(Carboxymethyl)D[Phe(3-Me)]Y(Carboxymethyl)[Bip]Y(Carboxymethyl)[Orn][dL][Dab][Cha][Val(3-OH)]SC[Dab][AEEA][Aun]-OH; thioether N-14) | 7.3 nM |
| COC[C@@H]1NC(=O)CSC[C@@H](C(=O)N[C@@H](CCN)C(=O)NCCOCCOCC(=O)NCCCCCCCCCCC(=O)O)NC(=O)[C@H](CO)NC(=O)[C@H](C(C)(C)O)NC(=O)[C@H](CC2CCCCC2)NC(=O)[C@H](CCN)NC(=O)[C@@H](CC(C)C)NC(=O)[C@H](CCCN)NC(=O)[C@H](Cc2ccc(OCC(=O)O)cc2)NC(=O)[C@H](Cc2ccc(-c3ccccc3)cc2)NC(=O)[C@H](Cc2ccc(OCC(=O)O)cc2)NC(=O)[C@H](Cc2cccc(C)c2)NC(=O)[C@H](CC(=O)O)NC(=O)[C@H](Cc2ccc(C(=O)O)cc2)NC1=O [Compound 2241] ({CH2CO}-S(Me)[Phe(4-COOH)]D[Phe(3-Me)]Y(Carboxymethyl)[Bip]Y(Carboxymethyl)[Orn][dL][Dab][Cha][Val(3-OH)]SC[Dab][AEEA][Aun]-OH; thioether N-14) | 3.7 nM |
